Data reported in patent publication US20210395327A1, “Growth Hormone-Releasing Hormone Antagonists and Uses Thereof” (United States Government As Represented By The Department …, priority 2019, published 2021).
Entries after “also recorded” stand apart in the source; their conditions may differ. Non-standard residues stand in square brackets, D forms with d. Residues, ends and D or L forms follow the SMILES beside them. *: point of attachment. Phenylacetyl(2,3,4,5,6-F5) = O=C(Cc1c(F)c(F)c(F)c(F)c1F)*; Phe(F5) = N[C@@H](Cc1c(F)c(F)c(F)c(F)c1F)C(=O)O; Phe(4-Cl) = N[C@@H](Cc1ccc(Cl)cc1)C(=O)O; hArg = N=C(N)NCCCC[C@H](N)C(=O)O; 12Ado = NCCCCCCCCCCCC(=O)O; Nle = CCCC[C@H](N)C(=O)O; Orn = NCCC[C@H](N)C(=O)O; Abu = CC[C@H](N)C(=O)O; PhAc = O=C(Cc1ccccc1)*

Legend:
[1] = system: HT-29 colon cancer cells; assay: In vitro cell viability, HT-29; assay type: cell-based, human; conditions: Table 3B; 5 μM for 72 H; MIA-602 = 1
Experimental: The inhibitory effects of the various synthesized GHRH antagonists were tested in cell proliferation assays in various human cancer cell lines including stomach cancer (KATOIII, N87), colon cancer (HT-29), urothelial cancer (J82, RT4), pancreatic cancer (PANC-1, CFPAC-1), prostatic cancer (PC3), breast cancer (MX-1, HCC1806), ovarian cancer (SK-OV-3, OVCAR-3) and lung cancer (HCC827, H460).
Cell culture. Human cancer cell lines including pancreatic (PANC-1 and CFPAC-1), lung (HCC827 and H460), stomach (NCI-N87 and KATOIII), urothelial (J82, RT4), prostatic (PC3), breast (MX-1 and HCC 1806), colorectal (HT-29), and ovarian (SK-OV-3 and OVCAR-3) were obtained from the American Type Culture Collection (ATCC) and cultured at 37° C. in a humidified 95% air/5% CO2 atmosphere in the medium recommended by ATCC.
In vitro cell viability. Cell viability was analyzed as follows: cancer cells including pancreatic (PANC-1 and CFPAC-1), lung (HCC827 and H460), stomach (NCI-N87 and KATOIII), urothelial (J82, RT4), prostatic (PC3) and breast (MX-1 and HCC 1806), colorectal (HT-29) and ovarian (SK-OV-3 and OVCAR-3) were grown on 96 well plates to ˜60% confluence, the cells were starved for 24 h in culture medium containing 0.5% FBS. Cells were then treated with GHRH antagonists MIA602 AVR compounds at concentrations of 1, 2.5 or 5 μM, or vehicle (0.1% DMSO) in quintuplicates for 72 hours. The medium was replaced every 48 hours. Cell viability was measured using CellTiter 96 aqueous one solution kit (Promega). Inhibitory effects of tested AVR compounds in comparison to that of MIA602 are presented as inhibitory potency.
Inhibitory effects of selected AVR compounds in comparison to that of MIA602 are presented as inhibitory potency (e.g., percentage of inhibition). […] The cell lines tested including lung cancer HCC827 (FIG. 2A), pancreatic cancer CFPAC-1 (FIG. 2B), stomach cancer N87 (FIG. 2C), colon cancer HT-29 (FIG. 2D), breast cancers MX-1 and HCC1806 (FIGS. 2 E, F). Based on the results of cell proliferation assay after cancer cells were treated with antagonist at concentration of 5 μM for 72H, the relative inhibitory potency of AVR antagonists in comparison to MIA-602 is summarized in Table 3 A and B. Over 60 AVR compounds were tested in 12 cancer cell lines.
Based on the results of cell proliferation assay after cancer cells were treated with antagonist at concentration of 5 µM for 72H, * at concentration of 2 µM for 72 H.

[2] = system: NCI-N87 stomach cancer cells; assay: In vitro cell viability (CellTiter 96), N87; assay type: cell-based, human; conditions: for In vitro relative inhibitory potency in comparison to MIA-602, NCI-N87: Table 3B, 5 μM for 72 H, MIA-602 = 1; for relative inhibitory potency in comparison to MIA-602, Stomach N87: antagonist 5 μM for 72 h, cell proliferation assay, MIA602 = 1
Procedure, shortened: (§1)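 Human tumour lines were exposed to GHRH antagonist at 1, 2.5 or 5 μM for 72 h with medium refreshed every 48 h, after 24 h in low-serum (0.5% FBS) medium. Cell viability (CellTiter 96) was expressed as inhibition relative to MIA602.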

[3] = system: GH release from rat pituitary cells; assay: Inhibition of GH release from rat pituitary cells in vitro (GH ELISA); assay type: cell-based; conditions: for Relative GH release: analogs 20 nM, then with 1 nM GHRH(1-29)NH2 for 30 minutes, Control = 1.00; for inhibitory effects on the release of GH, compared with MIA-602 (in words): rat pituitary cells in vitro, 20 nM
Experimental: In vitro assessment of the antagonistic activity of GHRH analogs. Rats were decapitated and pituitaries were collected in pre-warmed HBSS (Hanks' Balanced Salt Solution). Tissue was then cut into small pieces and digested in HBSS medium containing 3% BSA, 50 μg/ml gentamycin and 0.5% collagenase for 50 minutes at 37° C. Cells were further dispersed by pipetting and passed through a 100 μm cell strainer with the addition of DMEM containing 50 μg/ml gentamycin. 10% horse serum and 2.5% FBS (growth medium). Cells were harvested at 475×g for 2 minutes, resuspended in fresh growth medium and seeded onto poly-D-lysine-coated 24-well plates (7 pituitaries/plate). Cells were left to recover for 4 days. Growth medium was then replaced with serum-free DMEM for 4 hours and GHRH analogs (at concentration of 20 nM) were added in DMEM containing 0.1% BSA for 30 minutes. Cells were replenished with medium containing the same concentration of the analogs and 1 nM GHRH(1-29)NH2 for 30 minutes. Medium from this step was collected, centrifuged at 800 g for 3 minutes and GH concentration was determined by ELISA (ALPCO Diagnostics, Mill Valley, Calif.) according to the manufacturer's instruction.

[4] = target: T1, membrane GHRH-receptors on human anterior pituitary cells (Homo sapiens, UniProt Q02643); assay: Receptor binding, displacement of 125I-[His1,Nle27]-hGH-RH(1-32)NH2 on human pituitary membranes
T1 construct: Human pituitary was purchased from the National Hormone and Peptide Program; tissue National Hormone and Peptide Program; host or cells: human pituitary (membrane fractions)
T1 sequence (Q02643 23-423): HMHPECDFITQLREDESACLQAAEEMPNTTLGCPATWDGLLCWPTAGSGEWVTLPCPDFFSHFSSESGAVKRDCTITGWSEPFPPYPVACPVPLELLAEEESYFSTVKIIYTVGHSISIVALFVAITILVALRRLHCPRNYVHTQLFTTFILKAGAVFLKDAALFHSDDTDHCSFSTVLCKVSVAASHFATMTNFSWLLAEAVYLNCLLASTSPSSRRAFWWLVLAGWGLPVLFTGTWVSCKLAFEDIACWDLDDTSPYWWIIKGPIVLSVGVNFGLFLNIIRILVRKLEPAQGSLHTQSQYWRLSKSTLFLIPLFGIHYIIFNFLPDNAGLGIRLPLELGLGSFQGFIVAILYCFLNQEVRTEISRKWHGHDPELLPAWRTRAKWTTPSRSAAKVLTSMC
Procedure, shortened: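 Membrane fractions from human pituitary; peptides displace 125I-[His1,Nle27]-hGH-RH(1-32)NH2. IC50 is the dose giving 50% inhibition of specific binding, from duplicate tubes. Relative affinity is the ratio of test IC50 to hGH-RH(1-29)NH2 IC50.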

[5] = system: HCC827 lung cancer cells; assay: In vitro cell viability, HCC827; assay type: cell-based, human; conditions: for In vitro relative inhibitory potency in comparison to MIA-602, HCC827: Table 3B, 5 μM for 72 H, MIA-602 = 1; for relative inhibitory potency in comparison to MIA-602, Lung IICC827: antagonist 5 μM for 72 h, cell proliferation assay, MIA602 = 1
Procedure, shortened: as §1

[6] = system: CFPAC-1 pancreatic cancer cells; assay: In vitro cell viability, CFPAC-1; assay type: cell-based, human; conditions: for In vitro relative inhibitory potency in comparison to MIA-602, CFPAC-1: Table 3B, 5 μM for 72 H, MIA-602 = 1; for relative inhibitory potency in comparison to MIA-602, Pancreatic CFPAC-1: antagonist 5 μM for 72 h, cell proliferation assay, MIA602 = 1
Procedure, shortened: as §1

| IC50 ([4]; membrane receptors on human anterior pituitary cells, mean of two to three determinations, read-out: IC50) [nM] | SMILES | In vitro relative inhibitory potency in comparison to MIA-602, HT-29 [1] | In vitro relative inhibitory potency in comparison to MIA-602, NCI-N87 [2] | Relative GH release [3] | inhibitory effects on the release of GH, compared with MIA-602 (in words) [3] | binding affinity to membrane receptors of human pituitary cells (in words) ([4]; competitive binding, human pituitary membrane fractions) | In vitro relative inhibitory potency in comparison to MIA-602, HCC827 [5] | In vitro relative inhibitory potency in comparison to MIA-602, CFPAC-1 [6] | relative inhibitory potency in comparison to MIA-602, Stomach N87 [2] | relative inhibitory potency in comparison to MIA-602, Lung IICC827 [5] | relative inhibitory potency in comparison to MIA-602, Pancreatic CFPAC-1 [6] |
| --- | --- | --- | --- | --- | --- | --- | --- | --- | --- | --- | --- |
| 0.11 | CCCC[C@H](NC(=O)[C@@H](NC(=O)[C@H](CC(=O)O)NC(=O)[C@H](CCC(N)=O)NC(=O)[C@H](CC(C)C)NC(=O)[C@H](CC(C)C)NC(=O)[C@H](CCCCN)NC(=O)[C@H](CCCNC(=N)N)NC(=O)[C@H](C)NC(=O)[C@H](CO)NC(=O)[C@H](CC(C)C)NC(=O)[C@H](CCC(N)=O)NC(=O)[C@H](CC)NC(=O)[C@H](CC(C)C)NC(=O)[C@@H](NC(=O)[C@H](CCCCN)NC(=O)[C@H](CCCNC(=N)N)NC(=O)[C@H](Cc1c(F)c(F)c(F)c(F)c1F)NC(=O)[C@H](CCCCNC(=N)N)NC(=O)[C@H](C)NC(=O)[C@@H](NC(=O)[C@H](Cc1ccc(Cl)cc1)NC(=O)[C@@H](NC(=O)[C@H](C)NC(=O)[C@H](CC(=O)O)NC(=O)[C@@H](CCCNC(=N)N)NC(=O)[C@H](Cc1ccc(O)cc1)NC(=O)CCCCCCCCCCCNC(=O)Cc1c(F)c(F)c(F)c(F)c1F)[C@@H](C)CC)[C@@H](C)O)C(C)C)[C@@H](C)CC)C(=O)N[C@H](CCCNC(=N)N)C(=O)N[C@@H](CCCCNC(=N)N)C(=O)NCCCCCCCCCCCC(N)=O [AVR-353, 5FPhAC-Ada-Tyr-DArg-Asp-Ala-Ile-Cpa-Thr-Ala-Har-5FPhe-Arg-Lys-Val-Leu-Abu-Gln-Leu-Ser-Ala-Arg-Lys-Leu-Leu-Gln-Asp-Ile-Nle-DArg-Har-Ada-NH2] ({Phenylacetyl(2,3,4,5,6-F5)-12Ado}-Y[dR]DAI[Phe(4-Cl)]TA[hArg][Phe(F5)]RKVL[Abu]QLSARKLLQDI[Nle][dR][hArg][12Ado]-NH2) | 1.222 | 3.404 | 0.65 ± 0.08 | higher inhibitory effects than MIA-602 | higher binding affinity in comparison to MIA-602; also recorded: highest binding affinities | 1.641 | 2.922 |  |  |  |
|  | CCCC[C@H](NC(=O)[C@@H](NC(=O)[C@H](CC(=O)O)NC(=O)[C@H](CCC(N)=O)NC(=O)[C@H](CC(C)C)NC(=O)[C@H](CC(C)C)NC(=O)[C@H](CCCCN)NC(=O)[C@H](CCCNC(=N)N)NC(=O)[C@H](C)NC(=O)[C@H](CO)NC(=O)[C@H](CC(C)C)NC(=O)[C@H](CCC(N)=O)NC(=O)[C@H](CC)NC(=O)[C@H](CC(C)C)NC(=O)[C@@H](NC(=O)[C@H](CCCCN)NC(=O)[C@H](CCCNC(=N)N)NC(=O)[C@H](Cc1ccc(OC)cc1)NC(=O)[C@H](CCCCNC(=N)N)NC(=O)[C@H](C)NC(=O)[C@@H](NC(=O)[C@H](Cc1c(F)c(F)c(F)c(F)c1F)NC(=O)[C@@H](NC(=O)[C@H](C)NC(=O)[C@H](CC(=O)O)NC(=O)[C@@H](CCCNC(=N)N)NC(=O)[C@H](Cc1ccc(O)cc1)NC(=O)CCCCCCCCCCCNC(=O)Cc1c(F)c(F)c(F)c(F)c1F)[C@@H](C)CC)[C@@H](C)O)C(C)C)[C@@H](C)CC)C(=O)N[C@H](CCCNC(=N)N)C(=O)N[C@@H](CCCCNC(=N)N)C(=O)NC [AVR-235] ({Phenylacetyl(2,3,4,5,6-F5)-12Ado}-Y[dR]DAI[Phe(F5)]TA[hArg]Y(Me)RKVL[Abu]QLSARKLLQDI[Nle][dR][hArg]-NHMe) | 0.968 | 1.67 | 0.60 ± 0.02 | higher inhibitory effects than MIA-602 |  | 1.08 | 1.497 | 2.911 | 1.506 | 1.399 |
|  | CCCC[C@H](NC(=O)[C@@H](NC(=O)[C@H](CC(=O)O)NC(=O)[C@H](CCC(N)=O)NC(=O)[C@H](CC(C)C)NC(=O)[C@H](CC(C)C)NC(=O)[C@H](CCCN)NC(=O)[C@H](Cc1c[nH]cn1)NC(=O)[C@H](C)NC(=O)[C@H](CO)NC(=O)[C@H](CC(C)C)NC(=O)[C@H](CCC(N)=O)NC(=O)[C@H](CC)NC(=O)[C@H](CC(C)C)NC(=O)[C@@H](NC(=O)[C@H](CCCN)NC(=O)[C@H](Cc1c[nH]cn1)NC(=O)[C@H](Cc1ccc(OC)cc1)NC(=O)[C@H](CCCCNC(=N)N)NC(=O)[C@H](C)NC(=O)[C@@H](NC(=O)[C@H](Cc1c(F)c(F)c(F)c(F)c1F)NC(=O)[C@@H](NC(=O)[C@H](C)NC(=O)[C@H](CC(=O)O)NC(=O)[C@@H](CCCNC(=N)N)NC(=O)[C@H](Cc1ccc(O)cc1)NC(=O)CCCCCCCCCCCNC(=O)Cc1ccccc1)[C@@H](C)CC)[C@@H](C)O)C(C)C)[C@@H](C)CC)C(=O)N[C@H](CCCNC(=N)N)C(=O)N[C@@H](CCCCNC(=N)N)C(N)=O [MIA-602, PhAC-Ada, Tyr D-Arg, Asp, Ala, Ile, 5FPhe, Thr, Ala, Har, Tyr(Me), His, Orn, Val, Leu, Abu, Gin, Leu, Ser, Ala, His, Om, Leu, Leu, Gin, Asp, Ile; Nle, D-Arg, Har NH2, reference compound] ({PhAc-12Ado}-Y[dR]DAI[Phe(F5)]TA[hArg]Y(Me)H[Orn]VL[Abu]QLSAH[Orn]LLQDI[Nle][dR][hArg]-NH2) | 1 | 1 | 0.78 ± 0.01 |  |  | 1 | 1 | 1 | 1 | 1 |
